Data as given in the supplement of paper PMC10307832.

Tests used:
Assay in all cases: relative viability (nuclei count vs DMSO), 5 days (fraction); higher = more cells survive
[1] = compound: C1COCCN1C2=NC(=NC3=C2OC4=C3C=CC=N4)C5=CC(=CC=C5)NC(=O)C6=CN=C(C=C6)N
Outline: (§1)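 Acceptance criteria were a control CV below 25% and at least one doubling per plate. Lung cancer cell lines in 1536-well plates got five library-drug doses (not always all listed) √10 apart by pinning and were left 5 days with no medium change. Viability divides treated-well nuclei by vehicle-well nuclei and is the median across plates. Nuclei were counted by MetaXpress from 4× Hoechst images.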

Entinostat = compound: Nc1ccccc1NC(=O)c1ccc(CNC(=O)OCc2cccnc2)cc1 [Entinostat]
Outline: as §1

SGI-1776 = compound: CN1CCC(CNc2ccc3ncc(-c4cccc(OC(F)(F)F)c4)n3n2)CC1 [SGI-1776]
Outline: as §1

[2] = compound: C1COCCN1C2=NC(=NC3=C2OC4=C3C=CC=N4)C5=CC(=CC=C5)NC(=O)C6=CN=C(C=C6)N + Cc1nc(NC(=O)N2CCC[C@H]2C(N)=O)sc1-c1ccnc(C(C)(C)C(F)(F)F)c1 [Alpelisib] (partner 2 µM)
Outline: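 Relative viability was taken as the ratio of nuclei in treated wells to nuclei in vehicle wells. Lung cancer cell lines in 1536-well plates received compounds by pin tool one day after seeding, either one drug alone or a fixed anchor-drug dose plus five library-drug doses (not always all listed) in √10 steps. Nuclei were counted on 4× images after 5 days of treatment, and values are medians of duplicate plates.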

| Cell Line | relative viability ([1]; 0.02 µM) | relative viability ([1]; 0.06325 µM) | relative viability ([1]; 0.2 µM) | relative viability ([1]; 0.6325 µM) | relative viability ([1]; 2 µM) | relative viability (Entinostat; 0.02 µM) | relative viability (Entinostat; 0.06325 µM) | relative viability (Entinostat; 0.2 µM) | relative viability (Entinostat; 0.6325 µM) | relative viability (Entinostat; 2 µM) | relative viability (SGI-1776; 0.08 µM) | relative viability (SGI-1776; 0.8 µM) | relative viability (SGI-1776; 2.53 µM) | relative viability (SGI-1776; 8 µM) | relative viability ([2]; first compound 0.02 µM) | relative viability ([2]; first compound 0.06325 µM) | relative viability ([2]; first compound 0.2 µM) | relative viability ([2]; first compound 0.6325 µM) | relative viability ([2]; first compound 2 µM) |
| --- | --- | --- | --- | --- | --- | --- | --- | --- | --- | --- | --- | --- | --- | --- | --- | --- | --- | --- | --- |
| NCI-H23 | 0.937 | 0.843 | 0.869 | 0.854 | 0.654 | 1.06 | 1.27 | 1.15 | 0.9 | 0.395 | 0.921 | 1.01 | 1.06 | 0.887 | 0.661 | 0.822 | 0.66 | 0.772 | 0.491 |
| CAL-12T | 0.937 | 1.05 | 0.972 | 1.02 | 0.788 | 1.04 | 1.05 | 1.2 | 0.982 | 0.691 | 1.06 | 1.14 | 0.913 | 0.996 | 1.26 | 1.29 | 1.26 | 1.15 | 0.537 |
| A-427 | 0.971 | 0.994 | 0.909 | 0.857 | 0.704 | 1.1 | 1.12 | 0.978 | 0.878 | 0.619 | 1.08 | 1.08 | 0.975 | 0.84 | 1.13 | 1.11 | 1.04 | 0.907 | 0.798 |
| HARA | 1.06 | 0.834 | 1.02 | 0.976 | 0.908 | 0.955 | 1.06 | 1.18 | 0.805 | 0.488 | 1.02 | 1.13 | 1 | 0.75 | 0.927 | 0.946 | 0.922 | 0.743 | 0.436 |
| NCI-H1793 | 0.822 | 1.01 | 0.793 | 0.876 | 0.644 | 1.03 | 1.03 | 0.966 | 0.488 | 0.405 | 0.815 | 1.31 | 0.931 | 0.783 | 0.812 | 0.842 | 0.655 | 0.852 | 0.59 |
| NCI-H2023 | 1.08 | 1.13 | 0.85 | 0.83 | 0.496 | 0.849 | 0.786 | 0.495 | 0.166 | 0.0931 | 0.983 | 1.04 | 0.853 | 0.598 | 0.68 | 0.621 | 0.544 | 0.438 | 0.359 |
| ABC-1 | 1.09 | 0.879 | 0.83 | 1.1 | 0.927 | 1.01 | 1.05 | 1.15 | 0.808 | 0.398 | 1.02 | 0.916 | 0.835 | 0.897 | 1.03 | 1.05 | 0.981 | 0.971 | 0.695 |
| LC-2-ad | 0.965 | 1.06 | 0.937 | 0.932 | 0.788 | 1.02 | 0.972 | 0.942 | 0.48 | 0.315 | 0.984 | 1.05 | 1.09 | 0.815 | 0.824 | 0.83 | 0.893 | 0.782 | 0.531 |
| NCI-H441 | 1.1 | 1.14 | 1.08 | 0.888 | 0.443 | 1.01 | 1.18 | 0.882 | 0.35 | 0.218 | 0.913 | 1.12 | 1.15 | 0.817 | 0.832 | 0.93 | 0.751 | 0.715 | 0.433 |
| NCI-H1915 | 1.02 | 1.06 | 1 | 1.03 | 0.74 | 1.01 | 0.997 | 1.01 | 0.573 | 0.392 | 1.03 | 0.987 | 0.995 | 1 | 1.01 | 1.17 | 1.08 | 1.05 | 0.971 |
| NCI-H1299 | 0.991 | 1.1 | 1.03 | 1.02 | 0.868 | 1.03 | 1 | 0.994 | 0.85 | 0.727 | 1.03 | 1.01 | 0.996 | 0.946 | 1.1 | 1.11 | 1.09 | 1.06 | 0.857 |
| HCC-827 | 1.03 | 1.07 | 1.07 | 1.1 | 0.941 | 1.01 | 0.986 | 0.954 | 0.657 | 0.535 | 1.08 | 1.09 | 1.13 | 0.968 | 0.984 | 0.92 | 0.958 | 0.961 | 0.815 |
| EMC-BAC-2 | 1.05 | 0.972 | 0.912 | 0.92 | 0.885 | 1.18 | 0.965 | 0.91 | 0.598 | 0.398 | 1.05 | 1.06 | 0.973 | 0.87 | 0.794 | 0.867 | 0.785 | 0.707 | 0.589 |
| NCI-H596 | 0.993 | 1.11 | 0.944 | 0.948 | 0.832 | 1.03 | 0.937 | 0.975 | 0.854 | 0.588 | 0.943 | 1.11 | 0.869 | 0.731 | 0.497 | 0.51 | 0.691 | 0.51 | 0.394 |
| NCI-H1792 | 0.953 | 0.965 | 0.893 | 0.655 | 0.393 | 1.16 | 1.1 | 1.02 | 0.649 | 0.451 | 1.01 | 0.984 | 0.859 | 0.662 | 0.55 | 0.717 | 0.768 | 0.351 | 0.358 |
| NCI-H2009 | 0.979 | 1.09 | 0.971 | 0.94 | 0.846 | 1.02 | 0.974 | 0.969 | 0.796 | 0.644 | 1.08 | 0.992 | 1.05 | 0.858 | 1.26 | 1.24 | 1.16 | 1.11 | 0.838 |
| NCI-H2347 | 0.983 | 1.09 | 1.09 | 0.977 | 0.741 | 1.03 | 0.992 | 0.91 | 0.521 | 0.366 | 1.13 | 1.08 | 1.02 | 0.963 | 1.06 | 1.03 | 1.06 | 0.998 | 0.842 |
